Test: solvent given as SMILES
[1] = in c1ccc2c(c1)c1ccccc1n2-c1ccc(-c2ccc(-n3c4ccccc4c4ccccc43)cc2)cc1

c1cc2c3c(c1)-c1cccc4ccn(c14)B3n1ccc3cccc-2c31
emission maximum (in C1CCOC1): 387 nm

FC(F)(F)c1ccc(/C=C/c2nc(/C=C/c3ccc(N(c4ccccc4)c4ccccc4)cc3)cc(/C=C/c3ccc(N(c4ccccc4)c4ccccc4)cc3)n2)cc1
emission maximum (in C1CCOC1): 526 nm
emission maximum (in CC#N): 600 nm
emission maximum (in CC(C)=O): 567 nm
emission maximum (in CCCCCCC): 467 nm
emission maximum (in CS(C)=O): 599 nm
emission maximum (in Cc1ccccc1): 486 nm
emission maximum (in ClCCl): 554 nm

CN(C)c1ccc(/C=C/c2nc(N3CCOCC3)c3c([n+]2[O-])CCCC3)cc1
emission maximum (in ClCCl): 523 nm

CCN(CC)c1ccc2cc(-c3nc4ccccc4n3-c3ccccc3)c(=O)oc2c1
emission maximum (in ClCCl): 479 nm

CCNc1cc2c(cc1C)C(c1ccccc1C(=O)O)=C1CCCC(/C=C/C3=[N+](C)c4ccc5ccccc5c4C3(C)C)=C1O2
emission maximum (in CC#N): 749 nm
emission maximum (in CCO): 741 nm
emission maximum (in CO): 744 nm
emission maximum (in ClC(Cl)Cl): 748 nm

Cc1cc(C2=C(c3cc(C)sc3C)P(=O)(c3ccccc3)c3ccccc32)c(C)s1 (stereo unspecified)
emission maximum (in C1CCOC1): 468 nm

CC1=CC(C)=[N+]2C1=C(c1ccc3cccnc3n1)c1c(C)cc(C)n1[B-]2(F)F
emission maximum (in CC#N): 516 nm
emission maximum (in CCCCCC): 524 nm
emission maximum (in CO): 521 nm
emission maximum (in ClC(Cl)Cl): 527 nm
emission maximum (in ClCCl): 522 nm

F[B-]1(F)n2c(cc3sc4ccccc4c32)C(c2ccc(I)cc2)=C2C=c3sc4ccccc4c3=[N+]21
emission maximum (in ClC(Cl)Cl): 673 nm

COC(=O)c1ccc(C2=C3C=CC(C)=[N+]3[B-](F)(F)n3c(C)ccc32)cc1
emission maximum (in C1CCCCC1): 533 nm
emission maximum (in C1CCOC1): 536 nm
emission maximum (in CC#N): 531 nm
emission maximum (in CCOC(C)=O): 533 nm
emission maximum (in CO): 533 nm
emission maximum (in Cc1ccccc1): 538 nm
emission maximum (in ClC(Cl)Cl): 538 nm

Cn1nc(-c2ccccc2)c2nc3cc(Cl)ccc3nc21
emission maximum (in C1CCCCC1): 487 nm
emission maximum (in C1CCOC1): 519 nm
emission maximum (in CC#N): 540 nm

COc1ccc(-c2cnc3nn4ccccc4c3c2)cc1
emission maximum (in C1CCOC1): 423 nm

CC1(C)c2ccccc2-c2cc3c(cc21)c1ccccc1n3-c1ccc2ccccc2n1
emission maximum (in ClCCl): 438 nm

CC(C)[Si](C#Cc1c2nc3c(nc2c(C#C[Si](C(C)C)(C(C)C)C(C)C)c2nc4c(nc12)C1c2ccccc2C4c2ccccc21)C1c2ccccc2C3c2ccccc21)(C(C)C)C(C)C
emission maximum (in CCCCCC): 466 nm

CCCc1ccc(C#Cc2cc(C#Cc3ccc(N(C)C)cc3)c3ccc4c(C#Cc5ccc(N(C)C)cc5)cc(C#Cc5ccc(CCC)cc5)c5ccc2c3c54)cc1
emission maximum (in ClCCl): 591 nm

CCCCCCCCCc1c2ccccc2cc2c1oc1c3c(c4ccccc4c12)-c1c(c2oc4cc5ccccc5cc4c2c2ccccc12)OCO3
emission maximum (in C1CCOC1): 416 nm

CCCCCCCCc1ccc(-c2ccc(-c3cc(-c4ccc(-c5ccc(CCCCCCCC)s5)c5nsnc45)c4ccc5c(-c6ccc(-c7ccc(CCCCCCCC)s7)c7nsnc67)cc(-c6ccc(-c7ccc(CCCCCCCC)s7)c7nsnc67)c6ccc3c4c65)c3nsnc23)s1
emission maximum (in ClC(Cl)Cl): 541 nm

c1ccc2c(c1)Oc1ccccc1C21c2cc(-c3ccc4ccc5cccc6ccc3c4c56)ccc2-c2ccc(-c3ccc4ccc5cccc6ccc3c4c56)cc21
emission maximum (in ClC(Cl)Cl): 422 nm

c1ccc(C2=C3C4=C(C5=[N+]3[B-]3(Oc6ccccc65)Oc5ccccc5-c5c6c(c2n53)C2CCC6CC2)C2CCC4CC2)cc1 (stereo unspecified)
emission maximum (in ClCCl): 645 nm

c1ccc(-c2nc(-c3ccccc3)nc(-c3cc(-n4c5ccccc5c5ccccc54)cc(-n4c5ccccc5c5ccccc54)c3)n2)cc1
emission maximum (in C1CCCCC1): 409.39 nm
emission maximum (in C1CCOC1): 546.94 nm
emission maximum (in Cc1ccccc1): 475.1 nm

O=P1(c2ccccc2)c2cc(N3c4ccccc4Oc4ccccc43)ccc2-c2ccc(N3c4ccccc4Oc4ccccc43)cc21
emission maximum (in Cc1ccccc1): 540 nm
emission maximum [1]: 550 nm

O=S(=O)(c1ccc(-c2ccc3c(c2)c2ccccc2n3-c2ccccc2)cc1)c1ccc(-c2ccc3c(c2)c2ccccc2n3-c2ccccc2)cc1
emission maximum (in C1CCCCC1): 365.07 nm
emission maximum (in C1CCOC1): 403.28 nm
emission maximum (in CN(C)C=O): 431.81 nm
emission maximum (in Cc1ccccc1): 381 nm
emission maximum (in ClC(Cl)Cl): 402.48 nm
emission maximum (in ClCCl): 415.93 nm

COc1ccc(/C=C/c2cc(/C=C/c3ccc(OC)cc3)nc(/C=C/c3ccc(C(F)(F)F)cc3)n2)cc1
emission maximum (in C1CCOC1): 436 nm
emission maximum (in CC#N): 463 nm
emission maximum (in CC(C)=O): 452 nm
emission maximum (in CCCCCCC): 398 nm
emission maximum (in CS(C)=O): 475 nm
emission maximum (in Cc1ccccc1): 411 nm
emission maximum (in ClCCl): 441 nm

c1ccc2c(-c3nc4sc5ccccc5c4s3)cccc2c1
emission maximum (in CS(C)=O): 447 nm

CC(C)[Si](C#Cc1c2cc3ccccc3cc2c(C#Cc2ccc(F)cc2)c2cc3ccccc3cc12)(C(C)C)C(C)C
emission maximum (in ClCCl): 660 nm

COC(=O)C1(C(=O)OC)Cc2c(C#Cc3ccc(OC)cc3)c(-c3ccc(OC)cc3)c3c(-c4ccccc4)c(-c4ccccc4)c(-c4ccccc4)c(-c4ccccc4)c3c2C1
emission maximum (in C1CCOC1): 421.77 nm

CCOC(=O)c1ccc2nc(/N=N/c3ccc(N(CC)CC)cc3)sc2c1
emission maximum (in CC#N): 582 nm
emission maximum (in ClCCl): 571 nm

CNc1cc2nc3cc(Br)c(Br)cc3nc2cc1NC
emission maximum (in CCO): 542 nm

CC(C)(C)c1ccc2c(c1)c1cc(C(C)(C)C)ccc1n2-c1ccc(N(c2ccc(-c3ccc(-c4ccc(-c5ccc(-c6ccc(-c7ccc(N(c8ccc(-n9c%10ccc(C(C)(C)C)cc%10c%10cc(C(C)(C)C)ccc%109)cc8)c8ccc(-n9c%10ccc(C(C)(C)C)cc%10c%10cc(C(C)(C)C)ccc%109)cc8)cc7)s6)s5)s4)s3)cc2)c2ccc(-n3c4ccc(C(C)(C)C)cc4c4cc(C(C)(C)C)ccc43)cc2)cc1
emission maximum (in ClCCl): 529 nm

CC(C)(C)c1cc(/C2=C3\C=CC(=N3)/C(c3ccc(Br)cc3)=c3/cc/c([nH]3)=C(\c3ccc(Br)cc3)C3=N/C(=C(/c4cc(C(C)(C)C)cc(C(C)(C)C)c4)c4cc2c[nH]4)C=C3)cc(C(C)(C)C)c1
emission maximum (in CC(=O)N(C)C): 716 nm

Cc1cc(C)c2c(c1)c1cc(C)cc(C)c1n2-c1ccc2c(c1)Sc1cc3c(cc1B2c1c(C(C)C)cc(C(C)C)cc1C(C)C)B(c1c(C(C)C)cc(C(C)C)cc1C(C)C)c1ccccc1S3
emission maximum (in Cc1ccccc1): 465 nm
emission maximum (in O=P(c1ccccc1)(c1ccccc1)c1ccc2oc3ccc(P(=O)(c4ccccc4)c4ccccc4)cc3c2c1): 483 nm

Cc1ccc(-c2c3nc(c(-c4ccc(C)cc4)c4ccc([nH]4)c(-c4ccc(OC(=O)C(C)c5ccccc5)cc4)c4nc(c(-c5ccc(C)cc5)c5ccc2[nH]5)C=C4)C=C3)cc1 (stereo unspecified)
emission maximum (in ClCCl): 653 nm

Nc1cccc2c1ccc1[n+]2[B-](F)(F)n2c-1cc1c3ccccc3c3ccccc3c12
emission maximum (in ClCCl): 580 nm

CCOC(=O)c1c2c3c(ccc(C)c3c3cc4c(cc13)[Si](C)(C)O[Si]4(C)C)N(C)C2=O
emission maximum (in CC#N): 413 nm

c1ccc2c(-n3c(-c4ccc(-c5ccc(-c6nc7c8ccccc8c8ccccc8c7n6-c6cccc7ccccc67)c6ccccc56)c5ccccc45)nc4c5ccccc5c5ccccc5c43)cccc2c1
emission maximum (in ClCCl): 428 nm

CCOC(=O)c1c(-c2cc3ccccc3oc2=O)nn(-c2ccc(C)c(C)c2)c1C(=O)OCC
emission maximum (in ClCCl): 408 nm

C1=Cc2ccc(N(c3ccccc3)c3ccccc3)cc2Cc2cc(N(c3ccccc3)c3ccccc3)ccc21
emission maximum (in ClCCl): 440 nm

CCCCCCCCOc1cc(/C=C/c2cc(OCCCCCCCC)c(/C=C/c3cc(OCCCCCCCC)c(/C=C/c4ccncc4)cc3OCCCCCCCC)cc2OCCCCCCCC)c(OCCCCCCCC)cc1/C=C/c1ccncc1
emission maximum (in ClCCl): 570 nm

O=P1(c2ccccc2)c2ccc(N3c4ccccc4Oc4ccccc43)cc2-c2cc(N3c4ccccc4Oc4ccccc43)ccc21
emission maximum (in Cc1ccccc1): 535 nm
emission maximum [1]: 551 nm

COc1cc2c(cc1OC)C1=C[C@H](c3ccccc3)C3(C(C(=O)O[C@@H]4C[C@H]5CC[C@@H]4C5)=C(C(=O)O[C@H]4C[C@@H]5CC[C@H]4C5)N1CC2)c1ccccc1-c1ccccc13
emission maximum (in ClCCl): 422 nm

COc1ccc(-c2pc3ccccc3s2)cc1 (stereo unspecified)
emission maximum (in CC#N): 445 nm

CCN(CC)c1ccc(/C=C/c2cc(/C=C/c3ccc(N(CC)CC)cc3)nc(N)n2)cc1
emission maximum (in Cc1ccccc1): 468 nm
emission maximum (in ClC(Cl)Cl): 518 nm

C[n+]1ccn(CCCCc2ccc3c(c2)c2ccccc2n3-c2cc(C#N)c(C#N)cc2-n2c3ccccc3c3cc(CCCCn4cc[n+](C)c4)ccc32)c1
emission maximum (in CC#N): 572 nm

CN(C)c1ccccc1
emission maximum (in C1CCCCC1): 339.9 nm

C(#Cc1ccccc1C#Cc1ccccc1)c1ccccc1
emission maximum (in CC#N): 360 nm

N#CC(C#N)=Cc1nc2ccc(C#Cc3ccc(N(c4ccccc4)c4ccccc4)cc3)cc2s1
emission maximum (in Cc1ccccc1): 617 nm

C(=C\c1nc2ccccc2s1)/c1ccc(-c2nc3c4cccnc4c4ncccc4c3[nH]2)cc1
emission maximum (in C1CCOC1): 469 nm
emission maximum (in CC#N): 485 nm
emission maximum (in CO): 488 nm
emission maximum (in ClCCl): 472 nm

N#Cc1ccc2c(c1)C1(c3cc(C#N)ccc3-2)c2ccccc2N(c2ccccc2)c2ccccc21
emission maximum (in Cc1ccccc1): 492.18 nm

CCOc1cc2c(cc1/C=C/C1=CC(=C(C#N)C#N)CC(C)(C)C1)c1ccccc1n2CC
emission maximum (in C1CCOC1): 610 nm
emission maximum (in CC#N): 629 nm
emission maximum (in CCO): 632 nm
emission maximum (in CCOC(C)=O): 591 nm
emission maximum (in CN(C)C=O): 635 nm
emission maximum (in CS(C)=O): 641 nm
emission maximum (in Cc1ccccc1): 578 nm
emission maximum (in ClC(Cl)Cl): 608 nm
emission maximum (in ClCCl): 617 nm

COc1cc2cc(C#N)c3ccc4ccccc4c3c2cc1OC
emission maximum (in ClC(Cl)Cl): 399 nm

CCN1c2ccc(/C=N/Nc3ccccn3)cc2Sc2cc(/C=N/Nc3ccccn3)ccc21
emission maximum (in C1CCOC1): 495 nm
emission maximum (in CS(C)=O): 507 nm
emission maximum (in Cc1ccccc1): 491 nm
emission maximum (in ClCCl): 498 nm

CCCCCCn1c2cc(C=O)sc2c2sc3c(sc4c5sc(C=O)cc5n(CCCCCC)c43)c21
emission maximum (in ClCCl): 496 nm

C1=C(c2ccc(-c3cccs3)s2)CCC(c2ccccc2)C1 (stereo unspecified)
emission maximum (in C1CCOC1): 412 nm
emission maximum (in CC#N): 411 nm
emission maximum (in CCCCCC): 409 nm
emission maximum (in CCO): 411 nm
emission maximum (in OCCOCCO): 412 nm
emission maximum (in c1ccncc1): 417 nm

CCOC(CN1C(=O)C2=C(c3cccs3)N(CC(OCC)OCC)C(=O)C2=C1c1cccs1)OCC
emission maximum (in ClC(Cl)Cl): 557 nm

— the Deep4Chem optical property database
